Source: US12552783B2, “Modulators of proteolysis and associated methods of use” (Arvinas Operations, Inc., priority 2018, dated 2026)

Biological target: KRas (Homo sapiens, UniProt P01116, G12C)
Assay: KRas degradation in NCI-H2030 cells by Western blot, normalized to GAPDH (data of Table 14)
Assay type: cell-based
Design: host or cells: NCI-H2030
Settings: for Dmax: NCI-H2030; for Percent Degradation at Indicated Concentration (μM): 0.1: 0.1 μM; for Percent Degradation at Indicated Concentration (μM): H2030
Method in brief: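 KRas/GAPDH band ratio vs DMSO lane gives % degradation; values under 25% were estimated visually, the rest quantitated. Cells are G12C homozygous, serum-free for 24 h, then dosed at 0.3/1/3 μM (0.1% DMSO). VHL-based compounds 24 h, others 72 h.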

Compound	Percent Degradation at Indicated Concentration (μM): 0.3 (H2030 cells, 0.3 μM)	Percent Degradation at Indicated Concentration (μM): 1 (H2030 cells, 1 μM)	Percent Degradation at Indicated Concentration (μM): 3 (H2030 cells, 3 μM)	Dmax (H2030 cells)	Percent Degradation at Indicated Concentration (μM): 0.1 (H2030 cells)	Percent Degradation at Indicated Concentration (μM) (0.3 μM)	Percent Degradation at Indicated Concentration (μM) (1 μM)	Percent Degradation at Indicated Concentration (μM) (3 μM)	Dmax
C=CC(=O)N1CCN(c2nc(NCCC(=O)N(C)CCOCCOCCNc3cccc4c3C(=O)N(C3CCC(=O)NC3=O)C4=O)nc3c(F)c(-c4cc(O)cc5ccccc45)c(Cl)cc23)CC1 (stereo not shown) [compound 57, 3-((4-(4-acryloylpiperazin-1-yl)-6-chloro-8-fluoro-7-(3-hydroxynaphthalen-1-yl)quinazolin-2-yl)amino)-N-(2-(2-(2-((2-(2,6-dioxopiperidin-3-yl)-1,3-dioxoisoindolin-4-yl)amino)ethoxy)ethoxy)ethyl)-N-methylpropanamide]	C (C ≤ 35)	C (C ≤ 35)	C (C ≤ 35)	≤ 35%					
C=CC(=O)N1CCN(c2nc(NCCC(=O)N(C)CCOCCOCCOCCNc3cccc4c3C(=O)N(C3CCC(=O)NC3=O)C4=O)nc3c(F)c(-c4cc(O)cc5ccccc45)c(Cl)cc23)CC1 (stereo not shown) [compound 58, 3-((4-(4-acryloylpiperazin-1-yl)-6-chloro-8-fluoro-7-(3-hydroxynaphthalen-1-yl)quinazolin-2-yl)amino)-N-(2-(2-(2-(2-((2-(2,6-dioxopiperidin-3-yl)-1,3-dioxoisoindolin-4-yl)amino)ethoxy)ethoxy)ethoxy)ethyl)-N-methylpropanamide]	C (C ≤ 35)	C (C ≤ 35)	C (C ≤ 35)	≤ 35%					
C=CC(=O)N1CCN(c2nc(NCCC(=O)N(C)CCOCCOCCOCCOCCNc3cccc4c3C(=O)N(C3CCC(=O)NC3=O)C4=O)nc3c(F)c(-c4cc(O)cc5ccccc45)c(Cl)cc23)CC1 (stereo not shown) [compound 59, 3-((4-(4-acryloylpiperazin-1-yl)-6-chloro-8-fluoro-7-(3-hydroxynaphthalen-1-yl)quinazolin-2-yl)amino)-N-(14-((2-(2,6-dioxopiperidin-3-yl)-1,3-dioxoisoindolin-4-yl)amino)-3,6,9,12-tetraoxatetradecyl)-N-methylpropanamide]	C (C ≤ 35)	C (C ≤ 35)		≤ 35%	C (C ≤ 35)				
C=CC(=O)N1CCN(c2nc(NCCC(=O)N(C)CCOCCOc3ccc4c(c3)C(=O)N(C3CCC(=O)NC3=O)C4=O)nc3c(F)c(-c4cc(O)cc5ccccc45)c(Cl)cc23)CC1 (stereo not shown) [compound 60, 3-((4-(4-acryloylpiperazin-1-yl)-6-chloro-8-fluoro-7-(3-hydroxynaphthalen-1-yl)quinazolin-2-yl)amino)-N-(2-(2-((2-(2,6-dioxopiperidin-3-yl)-1,3-dioxoisoindolin-5-yl)oxy)ethoxy)ethyl)-N-methylpropanamide]	C (C ≤ 35)	C (C ≤ 35)	C (C ≤ 35)	≤ 35%					
C=CC(=O)N1CCN(c2nc(NCCC(=O)N(C)CCOCCOCCOc3ccc4c(c3)C(=O)N(C3CCC(=O)NC3=O)C4=O)nc3c(F)c(-c4cc(O)cc5ccccc45)c(Cl)cc23)CC1 (stereo not shown) [compound 61, 3-((4-(4-acryloylpiperazin-1-yl)-6-chloro-8-fluoro-7-(3-hydroxynaphthalen-1-yl)quinazolin-2-yl)amino)-N-(2-(2-(2-((2-(2,6-dioxopiperidin-3-yl)-1,3-dioxoisoindolin-5-yl)oxy)ethoxy)ethoxy)ethyl)-N-methylpropanamide]	C (C ≤ 35)	C (C ≤ 35)		≤ 35%	C (C ≤ 35)				
C=CC(=O)N1CCN(c2nc(NCCC(=O)N(C)CCOCCOCCOCCOc3ccc4c(c3)C(=O)N(C3CCC(=O)NC3=O)C4=O)nc3c(F)c(-c4cc(O)cc5ccccc45)c(Cl)cc23)CC1 (stereo not shown) [compound 62, 3-((4-(4-acryloylpiperazin-1-yl)-6-chloro-8-fluoro-7-(3-hydroxynaphthalen-1-yl)quinazolin-2-yl)amino)-N-(2-(2-(2-(2-((2-(2,6-dioxopiperidin-3-yl)-1,3-dioxoisoindolin-5-yl)oxy)ethoxy)ethoxy)ethoxy)ethyl)-N-methylpropanamide]	C (C ≤ 35)	C (C ≤ 35)	C (C ≤ 35)	≤ 35%					
C=CC(=O)N1CCN(c2nc(NCCC(=O)N(C)CCOCCOCCOCCOCCOc3ccc4c(c3)C(=O)N(C3CCC(=O)NC3=O)C4=O)nc3c(F)c(-c4cc(O)cc5ccccc45)c(Cl)cc23)CC1 (stereo not shown) [compound 63, 3-((4-(4-acryloylpiperazin-1-yl)-6-chloro-8-fluoro-7-(3-hydroxynaphthalen-1-yl)quinazolin-2-yl)amino)-N-(14-((2-(2,6-dioxopiperidin-3-yl)-1,3-dioxoisoindolin-5-yl)oxy)-3,6,9,12-tetraoxatetradecyl)-N-methylpropanamide]	C (C ≤ 35)	C (C ≤ 35)		≤ 35%	C (C ≤ 35)				
C=CC(=O)N1CCN(c2nc(NCCC(=O)N(C)CCOc3ccc4c(c3)CN(C3CCC(=O)NC3=O)C4=O)nc3c(F)c(-c4cc(O)cc5ccccc45)c(Cl)cc23)CC1 (stereo not shown) [compound 64, 3-((4-(4-acryloylpiperazin-1-yl)-6-chloro-8-fluoro-7-(3-hydroxynaphthalen-1-yl)quinazolin-2-yl)amino)-N-(2-((2-(2,6-dioxopiperidin-3-yl)-1-oxoisoindolin-5-yl)oxy)ethyl)-N-methylpropanamide]	C (C ≤ 35)	C (C ≤ 35)	C (C ≤ 35)	≤ 35%					
C=CC(=O)N1CCN(c2nc(NCCC(=O)N(C)CCOCCOc3ccc4c(c3)CN(C3CCC(=O)NC3=O)C4=O)nc3c(F)c(-c4cc(O)cc5ccccc45)c(Cl)cc23)CC1 (stereo not shown) [compound 65, 3-((4-(4-acryloylpiperazin-1-yl)-6-chloro-8-fluoro-7-(3-hydroxynaphthalen-1-yl)quinazolin-2-yl)amino)-N-(2-(2-((2-(2,6-dioxopiperidin-3-yl)-1-oxoisoindolin-5-yl)oxy)ethoxy)ethyl)-N-methylpropanamide]	C (C ≤ 35)	C (C ≤ 35)	C (C ≤ 35)	≤ 35%					
C=CC(=O)N1CCN(c2nc(NCCC(=O)N(C)CCOCCOCCOc3ccc4c(c3)CN(C3CCC(=O)NC3=O)C4=O)nc3c(F)c(-c4cc(O)cc5ccccc45)c(Cl)cc23)CC1 (stereo not shown) [compound 66, 3-((4-(4-acryloylpiperazin-1-yl)-6-chloro-8-fluoro-7-(3-hydroxynaphthalen-1-yl)quinazolin-2-yl)amino)-N-(2-(2-(2-((2-(2,6-dioxopiperidin-3-yl)-1-oxoisoindolin-5-yl)oxy)ethoxy)ethoxy)ethyl)-N-methylpropanamide]	C (C ≤ 35)	C (C ≤ 35)	C (C ≤ 35)	≤ 35%					
C=CC(=O)N1CCN(c2nc(NCCC(=O)N(C)CCOCCOCCOCCOc3ccc4c(c3)CN(C3CCC(=O)NC3=O)C4=O)nc3c(F)c(-c4cc(O)cc5ccccc45)c(Cl)cc23)CC1 (stereo not shown) [compound 67, 3-((4-(4-acryloylpiperazin-1-yl)-6-chloro-8-fluoro-7-(3-hydroxynaphthalen-1-yl)quinazolin-2-yl)amino)-N-(2-(2-(2-(2-((2-(2,6-dioxopiperidin-3-yl)-1-oxoisoindolin-5-yl)oxy)ethoxy)ethoxy)ethoxy)ethyl)-N-methylpropanamide]	C (C ≤ 35)	C (C ≤ 35)	C (C ≤ 35)	≤ 35%					
C=CC(=O)N1CCN(c2nc(NCCC(=O)N(C)CCOCCOCCOCCOCCOc3ccc4c(c3)CN(C3CCC(=O)NC3=O)C4=O)nc3c(F)c(-c4cc(O)cc5ccccc45)c(Cl)cc23)CC1 (stereo not shown) [compound 68, 3-((4-(4-acryloylpiperazin-1-yl)-6-chloro-8-fluoro-7-(3-hydroxynaphthalen-1-yl)quinazolin-2-yl)amino)-N-(14-((2-(2,6-dioxopiperidin-3-yl)-1-oxoisoindolin-5-yl)oxy)-3,6,9,12-tetraoxatetradecyl)-N-methylpropanamide]						C (Percent Degradation: C ≤ 35)	C (Percent Degradation: C ≤ 35)	C (Percent Degradation: C ≤ 35)	≤ 35%
C=CC(=O)N1CCN(c2nc(NCCC(=O)N(C)CCOCCOc3ccc4c(c3)C(=O)N(C3CCC(=O)NC3=O)C4=O)nc3c(F)c(-c4c(O)cccc4F)c(Cl)cc23)CC1 [compound 69, 3-(((S)-4-(4-acryloylpiperazin-1-yl)-6-chloro-8-fluoro-7-(2-fluoro-6-hydroxyphenyl)quinazolin-2-yl)amino)-N-(2-(2-((2-(2,6-dioxopiperidin-3-yl)-1,3-dioxoisoindolin-5-yl)oxy)ethoxy)ethyl)-N-methylpropanamide]						C (Percent Degradation: C ≤ 35)	C (Percent Degradation: C ≤ 35)	C (Percent Degradation: C ≤ 35)	≤ 35%
